One series relates to HIV-1 (IIIB). Briefly: Antiviral assay in MT-4 cells (HIV MT-4 antiviral assay). Type of series: cell-based. The settings on record: Human immunodeficiency virus 1, IIIB, MT4, 120 h, HIV-1 (IIIB) in MT-4 cells, 5 days incubation. The method in brief:
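MT-4 cells infected with HIV-1 IIIB (1:250 diluted stock) and exposed to 1:3 serially diluted compound in RPMI with 10% FBS. Viability read by CellTiter-Glo luminescence after 5 days at 37° C; mock-infected cells and 5 μM AZT as controls.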

Series [1] in a line: Cytotoxicity assay in MT-4 cells. The settings on record: human, uninfected MT-4 cells, 5 days incubation; read-out: CC50. The class given is cell-based, human. The essentials:
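Infected MT-4 cells (HIV-1 IIIB, fresh 1:250 dilution of concentrated stock) or mock-infected cells exposed to compounds for 5 days at 37 °C. Viability by CellTiter-Glo luminescence; 5 μM AZT positive control, no-drug negative control. Uninfected cells used for cytotoxicity, with 10 μM puromycin as base-level cytotoxicity control.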

The next series deals with pLai RLuc reporter virus. Briefly: microbe, parasite or virus in culture. The class given is cell-based, HIV. As for the experimental part:
To quantify the amount of protein binding to human serum, compounds were serially diluted (1:3) in DMSO and acoustically transferred onto 384-well assay plates via a Labcyte ECHO robot. Each plate contained up to 8 test compounds, including negative and positive controls, (DMSO, 5 μM AZT respectively). Assay plates were prepared in duplicate, and tested in either CCM (cell culture media) or HS/CCM (human serum/cell culture media). MT-4 cells were first pre-infected with pLai RLuc reporter virus for 2 h at 37° C., then further diluted in either CCM (RPMI media, 10% FBS, 1% P/S) or HS/CCM (RPMI media, 10% FBS, 50% HS, 1% P/S), and subsequently added to each plate using a Biotek Micro Flow dispenser. After a 72-h incubation in a humidified and temperature controlled incubator (37° C.), Renilla Glo (Promega) was added to all assay plates and chemiluminescence read using an Envision plate-reader. […] To determine the amount of protein binding, EC50 fold shifts (or EC50 shifts) were calculated by dividing EC50 (HS/CCM)/EC50 (CCM).

[2] abbreviates: Human immunodeficiency virus 1, 72 h, read-out: Antiviral Serum Shift RLuc 50% HS, HS/CCM (RPMI media, 10% FBS, 50% HS, 1% P/S), 72-h incubation.
The mark [3] stands for this setting: Human immunodeficiency virus 1, 72 h, read-out: Antiviral Serum Shift RLuc CCM, CCM (RPMI media, 10% FBS, 1% P/S), 72-h incubation.

pEC50: −log10 of the molar value. Read-outs that look alike come from different tables or passages of the source. Bounds are passed on as bounds.

For `O=C(NCc1c(F)cc(F)cc1F)c1cn2c(c(O)c1=O)C(=O)N1CCc3ccc(Br)cc3[C@@H]2C1` (single isomer, unassigned) [Example 122-2], the pEC50 in the series on HIV-1 (IIIB) (read-out: EC50) was 7.84; with pLai RLuc reporter virus (setting [2]), 6.53; in the series with pLai RLuc reporter virus (setting [3]), 8.42. The CC50 at 5 days in series [1] came out at 4770 nM.
In the same order, the values of `O=C(NCc1ccc(F)c(Cl)c1F)c1cn2c(c(O)c1=O)C(=O)N1CCC=C(F)[C@H]2C1` (single isomer, unassigned) [Example 123-1] are 8.69, 8.43, 9.50 and 13700 nM.
Taken in the same sequence, the figures for `O=C(NCc1ccc(F)c(Cl)c1F)c1cn2c(c(O)c1=O)C(=O)N1CCC=C(F)[C@@H]2C1` (single isomer, unassigned) [Example 123-2] were 8.71, 6.36, 9.61 and 14600 nM.
For `O=C(NCc1c(F)cc(F)cc1F)c1cn2c(c(O)c1=O)C(=O)N1Cc3ccc(Cl)cc3C[C@H]2C1` (single isomer, unassigned) [Example 127-1], the pEC50 is 8.86 in the series with HIV-1 (IIIB) (read-out: EC50), 8.53 in the series with pLai RLuc reporter virus (setting [2]) and 9.49 with pLai RLuc reporter virus (setting [3]). Further, in series [1], the CC50 at 5 days was 5630 nM.
In the same order, the values of `O=C(NCc1ccc(F)cc1F)c1cn2c(c(O)c1=O)C(=O)N1Cc3ccc(Cl)cc3C[C@H]2C1` (single isomer, unassigned) [Example 128-1] are 8.67, 8.12, 9.12 and > 47200 nM.
In the case of `O=C(NCc1c(F)cc(F)cc1F)c1cn2c(c(O)c1=O)C(=O)N1Cc3cc(F)c(F)cc3C[C@@H]2C1` (single isomer, unassigned) [Example 159], the pEC50 is 8.45 in the series with HIV-1 (IIIB) (read-out: EC50), 8.59 in the series on pLai RLuc reporter virus (setting [2]) and 9.01 in the series on pLai RLuc reporter virus (setting [3]). In addition, in series [1], the CC50 at 5 days was > 43600 nM.
For the molecule `C[C@@]12Cc3cc(F)c(F)cc3CN(C1)C(=O)c1c(O)c(=O)c(C(=O)NCc3c(F)cc(F)cc3F)cn12` (single isomer, unassigned) [Example 191-1], the pEC50 in the series with HIV-1 (IIIB) (read-out: EC50) was 8.58; in the series with pLai RLuc reporter virus (setting [2]), 8.57; with pLai RLuc reporter virus (setting [3]), 9.21. Besides, the 50% cytotoxic concentration (CC50) at 5 days in series [1] amounted to 11600 nM.
Turning to `C[C@]12Cc3cc(F)c(F)cc3CN(C1)C(=O)c1c(O)c(=O)c(C(=O)NCc3c(F)cc(F)cc3F)cn12` (single isomer, unassigned) [Example 191-2], the pEC50 in the series on HIV-1 (IIIB) (read-out: EC50) is 8.84; in the series on pLai RLuc reporter virus (setting [2]), 8.71; in the series with pLai RLuc reporter virus (setting [3]), 9.44. Further, the cytotoxic concentration (CC50) at 5 days in series [1] was 11800 nM.
For `O=C(NCc1c(F)cc(F)cc1F)c1cn2c(c(O)c1=O)C(=O)N1CCCC(CF)C2C1` (single isomer, unassigned) [Example 194-1, 6-(fluoromethyl)-12-hydroxy-1,11-dioxo-N-(2,4,6-trifluorobenzyl)-1,4,5,6,7,11-hexahydro-3H-2,7-methanopyrido[1,2-a][1,4]diazonine-10-carboxamide], the pEC50 with HIV-1 (IIIB) (read-out: EC50) is 8.86; with pLai RLuc reporter virus (setting [3]) it was 9.17; in the series on pLai RLuc reporter virus (read-out: Antiviral Serum Shift RLuc 50% HS, HS/CCM (RPMI media, 10% FBS, 50% HS, 1% P/S), 72-h incubation), 6.65. For the same molecule, the CC50 at 5 days in series [1] turned out to be 10800 nM.
On to `O=C(NCc1ccc(F)cc1F)c1cn2c(c(O)c1=O)C(=O)N1CCCOC[C@@H]2C1` [Example 1-1, (S)-N-(2,4-difluorobenzyl)-13-hydroxy-1,12-dioxo-1,4,5,7,8,12-hexahydro-3H-2,8-methanopyrido[1,2-d][1,4,7]oxadiazecine-11-carboxamide], for which the pEC50 is 7.78 with HIV-1 (IIIB) (read-out: EC50), 8.31 in the series with pLai RLuc reporter virus (setting [2]) and 8.44 in the series with pLai RLuc reporter virus (setting [3]). Further, in series [1], the half-maximal cytotoxic concentration (CC50) at 5 days is > 50000 nM.
Turning to `O=C(NCc1ccc(F)cc1F)c1cn2c(c(O)c1=O)C(=O)N1CCCOC[C@H]2C1` [Example 1-2, (R)-N-(2,4-difluorobenzyl)-13-hydroxy-1,12-dioxo-1,4,5,7,8,12-hexahydro-3H-2,8-methanopyrido[1,2-d][1,4,7]oxadiazecine-11-carboxamide], the results for the pEC50 in the series with HIV-1 (IIIB) (read-out: EC50), in the series with pLai RLuc reporter virus (setting [2]) and with pLai RLuc reporter virus (setting [3]) were 8.24, 7.86 and 8.86, respectively. In addition, in series [1], the CC50 at 5 days stood at 20700 nM.
With `O=C(NCc1c(F)cc(F)cc1F)c1cn2c(c(O)c1=O)C(=O)N1C[C@H]2CCC(F)(F)C1` [Example 3-1, (7R)-4,4-difluoro-12-hydroxy-1,11-dioxo-N-(2,4,6-trifluorobenzyl)-1,4,5,6,7,11-hexahydro-3H-2,7-methanopyrido[1,2-a][1,4]diazonine-10-carboxamide], the pEC50 in the series with HIV-1 (IIIB) (read-out: EC50) was 8.38; in the series on pLai RLuc reporter virus (setting [2]), 7.15; in the series with pLai RLuc reporter virus (setting [3]), 9.07. For the same molecule, in series [1], the CC50 at 5 days is > 40200 nM.
For `O=C(NCc1c(F)cc(F)cc1F)c1cn2c(c(O)c1=O)C(=O)N1C[C@@H]2CCC(F)(F)C1` [Example 3-2, (7S)-4,4-difluoro-12-hydroxy-1,11-dioxo-N-(2,4,6-trifluorobenzyl)-1,4,5,6,7,11-hexahydro-3H-2,7-methanopyrido[1,2-a][1,4]diazonine-10-carboxamide], the values for the pEC50 in the series on HIV-1 (IIIB) (read-out: EC50), in the series with pLai RLuc reporter virus (setting [2]) and in the series with pLai RLuc reporter virus (setting [3]) were 8.27, 8.41 and 8.80, respectively. Besides, the CC50 at 5 days in series [1] was > 43300 nM.
As to `O=C(NCc1ccc(F)cc1F)c1cn2c(c(O)c1=O)C(=O)N1C[C@@H]2CCC(F)(F)C1` [Example 4-2, (7S)-N-(2,4-difluorobenzyl)-4,4-difluoro-12-hydroxy-1,11-dioxo-1,4,5,6,7,11-hexahydro-3H-2,7-methanopyrido[1,2-a][1,4]diazonine-10-carboxamide], the figures for the pEC50 in the series on HIV-1 (IIIB) (read-out: EC50), in the series on pLai RLuc reporter virus (setting [2]) and in the series with pLai RLuc reporter virus (setting [3]) were 8.32, 8.36 and 8.95, respectively. Further, in series [1], the CC50 at 5 days was found to be 10700 nM.
Take `O=C(NCc1ccc(F)cc1F)c1cn2c(c(O)c1=O)C(=O)N1CCCCC[C@@H]2C1` [Example 5-1, (8R)-N-(2,4-difluorobenzyl)-13-hydroxy-1,12-dioxo-1,3,4,5,6,7,8,12-octahydro-2,8-methanopyrido[1,2-a][1,4]diazecine-11-carboxamide]: the results for the pEC50 in the series on HIV-1 (IIIB) (read-out: EC50), in the series with pLai RLuc reporter virus (setting [2]) and with pLai RLuc reporter virus (setting [3]) were 8.70, 8.91 and 9.63, respectively. Besides, the CC50 at 5 days in series [1] came out at 11100 nM.
In the case of `O=C(NCc1ccc(F)cc1F)c1cn2c(c(O)c1=O)C(=O)N1CCCCC[C@H]2C1` [Example 5-2, (8S)—N-(2,4-difluorobenzyl)-13-hydroxy-1,12-dioxo-1,3,4,5,6,7,8,12-octahydro-2,8-methanopyrido[1,2-a][1,4]diazecine-11-carboxamide], the pEC50 with HIV-1 (IIIB) (read-out: EC50) was 8.54; with pLai RLuc reporter virus (setting [2]) it was 6.85; with pLai RLuc reporter virus (setting [3]), 9.14. The CC50 at 5 days in series [1] came out at 19500 nM.
Regarding `C[C@@H]1[C@H]2CCCCN1C(=O)c1c(O)c(=O)c(C(=O)NCc3ccc(F)cc3F)cn12` [Example 7, (7R,13R)—N-(2,4-difluorobenzyl)-12-hydroxy-13-methyl-1,11-dioxo-1,4,5,6,7,11-hexahydro-3H-2,7-methanopyrido[1,2-a][1,4]diazonine-10-carboxamide], the pEC50 in the series with HIV-1 (IIIB) (read-out: EC50) is 8.85; with pLai RLuc reporter virus (setting [2]), 8.83; in the series on pLai RLuc reporter virus (setting [3]), 9.55. Besides, in series [1], the CC50 at 5 days was found to be 8810 nM.
With `C[C@H]1[C@@H]2CCCCN1C(=O)c1c(O)c(=O)c(C(=O)NCc3c(F)cc(F)cc3F)cn12` [Example 8, (7S, 13S)-12-hydroxy-13-methyl-1,11-dioxo-N-(2,4,6-trifluorobenzyl)-1,4,5,6,7,11-hexahydro-3H-2,7-methanopyrido[1,2-a][1,4]diazonine-10-carboxamide], the values for the pEC50 with HIV-1 (IIIB), in the series with pLai RLuc reporter virus (setting [2]) and in the series with pLai RLuc reporter virus (setting [3]) were 8.82, 8.85 and 9.39, respectively. Besides, the CC50 at 5 days in series [1] stood at 20800 nM.
As for `C[C@H]1[C@H]2CCCCN1C(=O)c1c(O)c(=O)c(C(=O)NCc3ccc(F)cc3F)cn12` [Example 9, (7R,13S)—N-(2,4-difluorobenzyl)-12-hydroxy-13-methyl-1,11-dioxo-1,4,5,6,7,11-hexahydro-3H-2,7-methanopyrido[1,2-a][1,4]diazonine-10-carboxamide], the pEC50 in the series on HIV-1 (IIIB) (read-out: EC50) is 8.74; with pLai RLuc reporter virus (setting [2]), 8.77; in the series on pLai RLuc reporter virus (setting [3]) it was 9.48. The CC50 at 5 days in series [1] was 6610 nM.
Take `C[C@]1(O)CCCN2C[C@H]1n1cc(C(=O)NCc3ccc(F)cc3F)c(=O)c(O)c1C2=O` [Example 14-1, (6S,7R)—N-(2,4-difluorobenzyl)-6,12-dihydroxy-6-methyl-1,11-dioxo-1,4,5,6,7,11-hexahydro-3H-2,7-methanopyrido[1,2-a][1,4]diazonine-10-carboxamide]: the pEC50 in the series on HIV-1 (IIIB) (read-out: EC50) was 8.52; with pLai RLuc reporter virus (setting [2]), 8.73; in the series with pLai RLuc reporter virus (setting [3]), 9.10. Further, in series [1], the CC50 at 5 days is 22200 nM.

One may read the CC50 as the concentration giving 50% cytotoxicity.
